The values that follow come from patent US11957127B1, “1,3-bis(naphthalen-2-yloxy)propan-2-one as an eco-friendly insecticidal agent against Spodoptera littoralis (boisd.)” (priority 2023, dated 2024).

In this data set the test system is Spodoptera littoralis. As to the kind of experiment: Insecticidal bioassay screening (castor leaf dip, larval mortality). It counts as in vivo. The conditions noted are these: for Toxic ratio: 72 h, fenoxycarb's LC50 / compound's LC50 × 100. The method, then: Five concentrations (200, 100, 50, 25, 12.5 ppm) were designed for this synthetic compound and the reference fenoxycarb compound as the dynamic ingredients based on ppm via diluting the commercial formulation.
In this experiment, castor leaves are immersed in each of the previously prepared concentrations of the components for 10 seconds and then left to dry for 60 minutes. Larvae of the second and fourth instars of each checked strain are prepared with treated leaves in gauze-covered glass containers for 72 hrs. An untreated control is made in which leaves are dipped in triton x-100 and distilled water only. Then the preserved leaves were removed & fresh, untreated leaves were provided for 72 hours. Three replicates (10 larvae each) were checked for each concentration. Daily inspection was carried out for all treatments and mortality percentages were recorded 3 days (72 hours) after treatment. The average mortality percentage was corrected employing Abbott's formula. The corrected mortality rate for each of the previously synthesized compounds is statistically calculated according to Finney (1970). Through this rate, the corresponding concentration test lines (LDP lines) are assessed. Fifty and ninety percent mortality are determined, and the regression values for the checked products were previously evaluated.

Setting [1] is: 2nd instar larvae of S. littoralis, after 72 h of treatment.
Where [2] appears, read: 4th instar larvae of S. littoralis, after 72 h of treatment.

Molecules are shown by their SMILES. Values after ≈ are worked out from the molar mass of the structure shown. Like-named read-outs stand apart in the source and are kept apart here.

The term LC50 denotes the concentration that kills 50% of the test population.

As to `CCOC(=O)NCCOc1ccc(Oc2ccccc2)cc1` [Fenoxycarb, reference compound], the LC50 worked out at 2.73 ppm under setting [1]; 43.231 ppm under setting [2]; 2.73 µg/mL (≈ 9.06 µM) (Spodoptera littoralis, foliar). The Toxic ratio (2nd instar larvae) came to 100 and the Toxic ratio (4th instar larvae) is reported as 1.

In the case of `O=C(COc1ccc2ccccc2c1)COc1ccc2ccccc2c1` [Compound 4, 1,3-bis(naphthalen-2-yloxy)propan-2-one], the median lethal concentration (LC50) runs as follows: under setting [1], 38.69 ppm; (2nd instar larvae of S. littoralis, after 72 h of treatment, listed as 1,3-bis(naphthalen-2-yloxy)propan-2-one) “about 38.69 ppm”; under setting [2], 86.921 ppm; (4th instar larvae of S. littoralis, after 72 h of treatment, listed as 1,3-bis(naphthalen-2-yloxy)propan-2-one) “about 86.921 ppm”; (foliar, against Spodoptera littoralis under laboratory conditions (instar not given), read-out: LC50) 38.7 µg/mL (≈ 113 µM). Besides, the Toxic ratio was 7.0 (2nd instar larvae) and 49.7 (4th instar larvae). Also, where the note is “compared with reference insecticide fenoxycarb”, the “activity against Spodoptera littoralis (in words)” value is listed as “active”.
